Measurements as given in US20240190880A1 (THE REGENTS OF THE UNIVERSITY OF MICHIGAN, priority 2021, published 2024).

These compounds were tested against T1, ER (Homo sapiens, UniProt P03372) (assay: ER degradation activity, in-cell western blot analysis in T47D cells). Conditions: 16 hours, Table A does not say which cell line (T47D or MCF7), read-out: Potency (DC50).
T1 construct: host or cells: T47D and MCF7 human breast cancer cells
T1 sequence (P03372 1-595): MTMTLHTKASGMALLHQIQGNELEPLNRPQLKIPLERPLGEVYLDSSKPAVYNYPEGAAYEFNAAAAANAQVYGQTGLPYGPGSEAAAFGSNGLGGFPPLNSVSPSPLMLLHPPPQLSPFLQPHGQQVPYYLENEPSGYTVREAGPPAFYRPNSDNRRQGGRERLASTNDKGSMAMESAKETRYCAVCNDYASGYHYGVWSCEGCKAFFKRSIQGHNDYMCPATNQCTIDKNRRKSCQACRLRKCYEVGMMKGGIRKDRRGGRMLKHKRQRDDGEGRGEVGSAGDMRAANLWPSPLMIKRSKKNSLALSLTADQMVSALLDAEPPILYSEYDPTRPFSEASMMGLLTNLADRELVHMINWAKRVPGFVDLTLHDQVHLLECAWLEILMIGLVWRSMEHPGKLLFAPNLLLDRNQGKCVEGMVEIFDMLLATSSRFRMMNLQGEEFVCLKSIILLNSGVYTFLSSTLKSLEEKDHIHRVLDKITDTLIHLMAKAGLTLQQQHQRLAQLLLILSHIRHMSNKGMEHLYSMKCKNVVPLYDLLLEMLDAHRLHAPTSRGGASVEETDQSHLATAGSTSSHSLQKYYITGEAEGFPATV
Type: cell-based
In short: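 Cells were seeded overnight, exposed to diluted compounds for 16 hours, then stained with primary antibodies and with infrared-labelled secondary antibodies (1:1000, 1 h RT). Plates were scanned on a CLX reader, and ER levels were normalised to DMSO-treated wells.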

With C[C@@H]1Cc2c([nH]c3ccccc23)[C@@H](c2c(F)cc(N3CCC4(CC3)CN(C(=O)CN3Cc5cc6c(cc5C3)C(=O)N(C3CCC(=O)NC3=O)C6=O)C4)cc2F)N1CC(F)(F)F (stereo partly drawn) [E 227, 6-(2-(7-(3,5-difluoro-4-((1R,3R)-3-methyl-2-(2,2,2-trifluoroethyl)-2,3,4,9-tetrahydro-1H-pyrido[3,4-b]indol-1-yl)phenyl)-2,7-diazaspiro[3.5]nonan-2-yl)-2-oxoethyl)-2-(2,6-dioxopiperidin-3-yl)-6,7-dihydropyrrolo[3,4-f]isoindole-1,3(2H,5H)-dione] as the compound, how does the DC50 read?
Its DC50 is 10 to 100 nM.

With O=C1CCC(N2C(=O)c3cc4c(cc3C2=O)CN(C[C@H]2CC[C@@H](N3CC(Nc5ccc([C@@H]6c7ccc(O)cc7CC[C@@H]6c6ccccc6)cc5)C3)CC2)C4)C(=O)N1 (stereo partly drawn) [E 375, 2-(2,6-dioxopiperidin-3-yl)-6-(((1S,4s)-4-(3-((4-((1R,2S)-6-hydroxy-2-phenyl-1,2,3,4-tetrahydronaphthalen-1-yl)phenyl)amino)azetidin-1-yl)cyclohexyl)methyl)-6,7-dihydropyrrolo[3,4-f]isoindole-1,3(2H,5H)-dione] as the compound, how does the DC50 read?
Its DC50 is > 100 nM.

For CN(C1CCN(c2ccc([C@@H]3c4ccc(O)cc4CC[C@@H]3c3ccccc3)cc2)CC1)N1CCC(C(=O)N2Cc3cc4c(cc3C2)C(=O)N(C2CCC(=O)NC2=O)C4=O)CC1 (mixture of isomers) [E 287, 2-(2,6-dioxopiperidin-3-yl)-6-(1-((1-(4-((1R,2S)-6-hydroxy-2-phenyl-1,2,3,4-tetrahydronaphthalen-1-yl)phenyl)piperidin-4-yl)(methyl)amino)piperidine-4-carbonyl)-6,7-dihydropyrrolo[3,4-f]isoindole-1,3(2H,5H)-dione], which DC50 is on record?
The DC50 was 10 to 100 nM.

For O=C1CCC(N2C(=O)c3cc4c(cc3C2=O)CN(CC2(F)CCN(CC3CCN(c5ccc([C@@H]6c7ccc(O)cc7CC[C@@H]6c6ccccc6)cc5)CC3)CC2)C4)C(=O)N1 (stereo partly drawn) [E 211, 2-(2,6-dioxopiperidin-3-yl)-6-((4-fluoro-1-((1-(4-((1R,2S)-6-hydroxy-2-phenyl-1,2,3,4-tetrahydronaphthalen-1-yl)phenyl)piperidin-4-yl)methyl)piperidin-4-yl)methyl)-6,7-dihydropyrrolo[3,4-f]isoindole-1,3(2H,5H)-dione], which DC50 is on record?
Its DC50 is > 100 nM.

For O=C1CCC(N2C(=O)c3cc4c(cc3C2=O)CN(C2CCN(CC3(F)CN(c5ccc([C@@H]6c7ccc(O)cc7CC[C@@H]6c6ccccc6)cc5)C3)CC2)C4)C(=O)N1 (stereo partly drawn) [E 285, 2-(2,6-dioxopiperidin-3-yl)-6-(1-((3-fluoro-1-(4-((1R,2S)-6-hydroxy-2-phenyl-1,2,3,4-tetrahydronaphthalen-1-yl)phenyl)azetidin-3-yl)methyl)piperidin-4-yl)-6,7-dihydropyrrolo[3,4-f]isoindole-1,3(2H,5H)-dione], which DC50 is on record?
The DC50 was > 100 nM.

For O=C1CCC(N2C(=O)c3cc4c(cc3C2=O)CN(CC(=O)N2CCC3(CC2)CCN(c2ccc([C@@H]5c6ccc(O)cc6CC[C@@H]5c5ccccc5)cc2)CC3)CC4)C(=O)N1 (mixture of isomers) [E 172, rac-2-(2,6-dioxopiperidin-3-yl)-6-(2-(9-(4-((1R,2S)-6-hydroxy-2-phenyl-1,2,3,4-tetrahydronaphthalen-1-yl)phenyl)-3,9-diazaspiro[5.5]undecan-3-yl)-2-oxoethyl)-5,6,7,8-tetrahydro-1H-pyrrolo[3,4-g]isoquinoline-1,3(2H)-dione], which DC50 is on record?
The DC50 was 10 to 100 nM.

With C[C@@H]1Cc2cc(O)ccc2[C@@H](c2ccc(N3CCC(C(=O)N4CCC(N5Cc6cc7c(cc6C5)C(=O)N(C5CCC(=O)NC5=O)C7=O)CC4)CC3)cc2F)N1CC(F)F (stereo partly drawn) [E 323, 6-(1-(1-(4-((1S,3R)-2-(2,2-difluoroethyl)-6-hydroxy-3-methyl-1,2,3,4-tetrahydroisoquinolin-1-yl)-3-fluorophenyl)piperidine-4-carbonyl)piperidin-4-yl)-2-(2,6-dioxopiperidin-3-yl)-6,7-dihydropyrrolo[3,4-f]isoindole-1,3(2H,5H)-dione] as the compound, how does the DC50 read?
The DC50 was < 10 nM.

O=C1CCC(N2C(=O)c3cc4c(cc3C2=O)CN(Cc2cnc(N3CC(Oc5ccc([C@@H]6c7ccc(O)cc7CC[C@@H]6c6ccccc6)cc5)C3)nc2)C4)C(=O)N1 (stereo partly drawn) [E330, 2-(2,6-dioxopiperidin-3-yl)-6-((2-(3-(4-((1R,2S)-6-hydroxy-2-phenyl-1,2,3,4-tetrahydronaphthalen-1-yl)phenoxy)azetidin-1-yl)pyrimidin-5-yl)methyl)-6,7-dihydropyrrolo[3,4-f]isoindole-1,3(2H,5H)-dione] was tested. Which DC50 did it give?
The DC50 was > 100 nM.

With C[C@@H]1Cc2cc(O)ccc2[C@@H](c2c(F)cc(N3CCC4(CCN(CC(=O)N5Cc6cc7c(cc6C5)C(=O)N(C5CCC(=O)NC5=O)C7)C4)CC3)cc2F)N1CC(C)(F)F (stereo partly drawn) [E 34, 3-(6-(2-(8-(4-((1S,3R)-2-(2,2-difluoropropyl)-6-hydroxy-3-methyl-1,2,3,4-tetrahydroisoquinolin-1-yl)-3,5-difluorophenyl)-2,8-diazaspiro[4.5]decan-2-yl)acetyl)-1-oxo-3,5,6,7-tetrahydropyrrolo[3,4-f]isoindol-2(1H)-yl)piperidine-2,6-dione] as the compound, how does the DC50 read?
Its DC50 is 10 to 100 nM.

Which DC50 does the source give for C[C@@H]1Cc2c([nH]c3ccccc23)[C@@H](c2c(F)cc(N3CCC(C(=O)N4CCC(N5Cc6cc7c(cc6C5)C(=O)N(C5CCC(=O)NC5=O)C7=O)CC4)CC3)cc2F)N1CC(F)F (stereo partly drawn) [E 114, 6-(1-(1-(4-((1R,3R)-2-(2,2-difluoroethyl)-3-methyl-2,3,4,9-tetrahydro-1H-pyrido[3,4-b]indol-1-yl)-3,5-difluorophenyl)piperidine-4-carbonyl)piperidin-4-yl)-2-(2,6-dioxopiperidin-3-yl)-6,7-dihydropyrrolo[3,4-f]isoindole-1,3(2H,5H)-dione] here?
Its DC50 is < 10 nM.

C[C@@H]1Cc2c([nH]c3ccccc23)[C@@H](c2c(F)cc(N3CC(CC(=O)N4CC(N5Cc6cc7c(cc6C5)C(=O)N(C5CCC(=O)NC5=O)C7)C4)C3)cc2F)N1CC(F)F (stereo partly drawn) [E 103, 3-(6-(1-(2-(1-(4-((1R,3R)-2-(2,2-difluoroethyl)-3-methyl-2,3,4,9-tetrahydro-1H-pyrido[3,4-b]indol-1-yl)-3,5-difluorophenyl)azetidin-3-yl)acetyl)azetidin-3-yl)-1-oxo-3,5,6,7-tetrahydropyrrolo[3,4-f]isoindol-2(1H)-yl)piperidine-2,6-dione] was tested. Which DC50 did it give?
The DC50 was 10 to 100 nM.

Which DC50 does the source give for C[C@@H]1Cc2c([nH]c3ccccc23)[C@@H](c2cnc(N3CCC4(CCN(C(=O)CN5Cc6cc7c(cc6C5)C(=O)N(C5CCC(=O)NC5=O)C7=O)CC4)CC3)nc2)N1CC(F)F (stereo partly drawn) [E 258, 6-(2-(9-(5-((1R,3R)-2-(2,2-difluoroethyl)-3-methyl-2,3,4,9-tetrahydro-1H-pyrido[3,4-b]indol-1-yl)pyrimidin-2-yl)-3,9-diazaspiro[5.5]undecan-3-yl)-2-oxoethyl)-2-(2,6-dioxopiperidin-3-yl)-6,7-dihydropyrrolo[3,4-f]isoindole-1,3(2H,5H)-dione] here?
Its DC50 is < 10 nM.

Which DC50 does the source give for O=C1CCC(N2C(=O)c3cc4c(cc3C2=O)CN(C(=O)[C@H]2CC[C@H](CN3CC(Nc5ccc([C@@H]6c7ccc(O)cc7CC[C@@H]6c6ccccc6)cc5)C3)CC2)C4)C(=O)N1 (stereo partly drawn) [E 363, 2-(2,6-dioxopiperidin-3-yl)-6-((1R,4r)-4-((3-((4-((1R,2S)-6-hydroxy-2-phenyl-1,2,3,4-tetrahydronaphthalen-1-yl)phenyl)amino)azetidin-1-yl)methyl)cyclohexane-1-carbonyl)-6,7-dihydropyrrolo[3,4-f]isoindole-1,3(2H,5H)-dione] here?
The DC50 was < 10 nM.

Which DC50 does the source give for O=C1CCC(N2C(=O)c3cc4c(cc3C2=O)CN(c2ccc(CN3CC(Oc5ccc([C@@H]6c7ccc(O)cc7CC[C@@H]6c6ccccc6)cc5)C3)cn2)C4)C(=O)N1 (stereo partly drawn) [E328, 2-(2,6-dioxopiperidin-3-yl)-6-(5-((3-(4-((1R,2S)-6-hydroxy-2-phenyl-1,2,3,4-tetrahydronaphthalen-1-yl)phenoxy)azetidin-1-yl)methyl)pyridin-2-yl)-6,7-dihydropyrrolo[3,4-f]isoindole-1,3(2H,5H)-dione] here?
Its DC50 is > 100 nM.

Same assay, conditions: compounds 16 hours, Table A does not say whether T47D or MCF7, read-out: Potency (DC50)

With C[C@@H]1Cc2cc(O)ccc2[C@@H](c2c(F)cc(C3CCC4(CC3)CCN(C(=O)CN3Cc5cc6c(cc5C3)C(=O)N(C3CCC(=O)NC3=O)C6=O)CC4)cc2F)N1CC(F)F (stereo partly drawn) [E 447, 6-(2-(9-(4-((1S,3R)-2-(2,2-difluoroethyl)-6-hydroxy-3-methyl-1,2,3,4-tetrahydroisoquinolin-1-yl)-3,5-difluorophenyl)-3-azaspiro[5.5]undecan-3-yl)-2-oxoethyl)-2-(2,6-dioxopiperidin-3-yl)-6,7-dihydropyrrolo[3,4-f]isoindole-1,3(2H,5H)-dione] as the compound, how does the DC50 read?
The DC50 was > 100 nM.

With Cn1cc(-c2ccc3c(c2)CC[C@H](c2ccccc2)[C@@H]3c2ccc(N3CCC4(CCN(C(=O)CN5Cc6cc7c(cc6C5)C(=O)N(C5CCC(=O)NC5=O)C7=O)CC4)CC3)cc2)cn1 (stereo partly drawn) [E 509, 2-(2,6-dioxopiperidin-3-yl)-6-(2-(9-(4-((1R,2S)-6-(1-methyl-1H-pyrazol-4-yl)-2-phenyl-1,2,3,4-tetrahydronaphthalen-1-yl)phenyl)-3,9-diazaspiro[5.5]undecan-3-yl)-2-oxoethyl)-6,7-dihydropyrrolo[3,4-f]isoindole-1,3(2H,5H)-dione] as the compound, how does the DC50 read?
Its DC50 is > 100 nM.
